Results from US8969248B2, “5-iodotriazole derivatives” (Bayer Intellectual Property GmbH, priority 2010, dated 2015).

Assays:
Format in all cases: in vivo
Venturia inaequalis = experiment: Venturia test (apple)/protective; details: protective spray, 100 ppm, evaluation 10 days after inoculation
Protocol: (§1) [table] To produce an appropriate active ingredient formulation, 1 part by weight of active ingredient is mixed with the specified amounts of solvent and emulsifier, and the concentrate is diluted with water to the desired concentration. To test for protective activity, young plants are sprayed with the active ingredient formulation at the stated application rate. […] The plants are then placed in a greenhouse at approx. 21° C. and a relative air humidity of approx. 90%.

Sphaerotheca fuliginea = experiment: Sphaerotheca test (cucumber)/protective; details: protective spray, 500 ppm, evaluation 7 days after inoculation
Protocol: [table] To produce an appropriate active ingredient formulation, 1 part by weight of active ingredient is mixed with the specified amounts of solvent and emulsifier, and the concentrate is diluted with water to the desired concentration. To test for protective activity, young cucumber plants are sprayed with the active ingredient formulation at the stated application rate. 1 day after the treatment, the plants are inoculated with a spore suspension of Sphaerotheca fuliginea. The plants are then placed in a greenhouse at 70% relative air humidity and a temperature of 23° C.

Uromyces appendiculatus = experiment: Uromyces test (bean)/protective; details: protective spray, 100 ppm, evaluation 10 days after inoculation
Protocol: as §1

Phakopsora pachyrhizi = experiment: Phakopsora test (soya beans)/protective; details: protective spray, 100 ppm, evaluation 1 days after inoculation (so in the source)
Pyricularia oryzae = details: rice, protective spray, 250 ppm, evaluation 5 days after inoculation
Puccinia recondita [1] = experiment: Puccinia test (wheat)/protective; details: protective spray, 500 ppm, evaluation 7-9 days after inoculation
Fusarium graminearum = details: barley, protective spray, 500 ppm, evaluation 5 days after inoculation
Septoria tritici = Septoria tritici test (wheat)/protective; details: protective spray, 500 ppm, evaluation 21 days after inoculation
Leptosphaeria nodorum = Leptosphaeria nodorum test (wheat)/protective; details: protective spray, 500 ppm, evaluation 8 days after inoculation
Protocol: (§2) [table] To produce an appropriate active ingredient formulation, 1 part by weight of active ingredient is mixed with the specified amounts of solvent and emulsifier, and the concentrate is diluted with water to the desired concentration. To test for protective activity, young plants are sprayed with the active ingredient formulation at the stated application rate. After the spray coating has dried on, the plants are sprayed with spores with a spore suspension of Leptosphaeria nodorum.

Pyrenophora teres = Pyrenophora teres test (barley)/protective; details: protective spray, 500 ppm, evaluation 8 days after inoculation
Protocol: as §2, with “with” for “with spores with”, “Pyrenophora teres.” for “Leptosphaeria nodorum.”

[2] = system: Blumeria graminis f. sp. hordei; experiment: Blumeria graminis test (barley)/protective; details: protective spray, 500 ppm, evaluation 7 days after inoculation
Protocol: [table] To produce an appropriate active ingredient formulation, 1 part by weight of active ingredient is mixed with the specified amounts of solvent and emulsifier, and the concentrate is diluted with water to the desired concentration. To test for protective activity, young plants are sprayed with the active ingredient formulation at the stated application rate. After the spray coating has dried on, the plants are dusted with spores of Blumeria graminis f. sp. hordei.

Botrytis cinerea = experiment: Botrytis test (bean)/protective; details: protective spray, 250 ppm, evaluation 2 days after inoculation
Protocol: as §2, with “2 small pieces of agar colonized by Botrytis cinerea” for “the plants”, “placed onto each leaf.” for “sprayed with spores with a spore suspension of Leptosphaeria nodorum.”

Cochliobolus miyabeanus = experiment: Cochliobolus test (rice)/protective; details: protective spray, 250 ppm, evaluation 4 days after inoculation
Microdochium nivale = experiment: Microdochium test (wheat)/seed treatment; details: dose 50 g/dt (rate 100 [sic]), 21 days at 10° C., counting emerged plants
Protocol: The test was conducted under greenhouse conditions. Wheat seeds treated with an inventive active compound or a combination of inventive active compounds were sown in 6×6 cm vessels, into a mixture of steamed field soil and sand (1:1). The test compound(s) were dissolved in N-methyl-2-pyrrolidone and diluted to the desired concentration with water. Wheat kernels were inoculated with spores of Microdochium nivale. The infected and ground kernels were distributed between the treated wheat seeds. The seeds were covered with a top layer of steamed field soil and sand (1:1) and incubated in a greenhouse at 10° C. for 21 days. […] In this test, the following inventive compounds show an efficiency of 70% or higher at a dose of 50 g/dt.

Rhizoctonia solani = experiment: Rhizoctonia test (cotton)/seed treatment; details: dose 50 g/dt (rate 100 [sic]), 7 days at 20° C., counting emerged and diseased plants
Protocol: (§3) The test was conducted under greenhouse conditions. Cottonseeds treated with an inventive active compound or a combination of inventive active compounds were sown in 6×6 cm vessels, into a mixture of steamed field soil and sand (1:1). The test compound(s) were dissolved in N-methyl-2-pyrrolidone and diluted to the desired concentration with water. Perlite was inoculated with spores of Rhizoctonia solani. The infected perlite was distributed between the treated cottonseeds. The seeds were covered with a top layer of clay granules and incubated in a greenhouse at 20° C. for 7 days. […] In this test, the following inventive compounds show an efficiency of 70% or higher at a dose of 50 g/dt: […]

Puccinia recondita [3] = experiment: Puccinia test (wheat)/seed treatment; details: dose 50 g/dt (rate 100 [sic]), inoculated 14 days after sowing, evaluated 9 days later, infected leaf area
Protocol: The test was conducted under greenhouse conditions. Wheat seeds treated with an inventive active compound or a combination of inventive active compounds were sown in 6×6 cm vessels, into a mixture of steamed field soil and sand (1:1). The test compound(s) were dissolved in N-methyl-2-pyrrolidone and diluted to the desired concentration with water. The wheat grains treated were sown and placed in a greenhouse at 10° C. 14 days after sowing, the plants were inoculated with a spore suspension of Puccinia recondita. The plants were incubated at 20° C. for a further 9 days. […] In this test, the following inventive compounds show an efficiency of 70% or higher at a dose of 50 g/dt: […]

Fusarium culmorum = experiment: Fusarium test (wheat)/seed treatment; details: dose 50 g/dt (rate 100 [sic]), 14 days at 20° C., counting emerged plants
Protocol: The test was conducted under greenhouse conditions. Wheat seeds treated with an inventive active compound or a combination of inventive active compounds were sown in 6×6 cm vessels, into a mixture of steamed field soil and sand (1:1). The test compound(s) were dissolved in N-methyl-2-pyrrolidone and diluted to the desired concentration with water. Wheat kernels were inoculated with spores of Fusarium culmorum. The infected and ground kernels were distributed between the treated wheat seeds. The seeds were covered with a top layer of clay granules and incubated in a greenhouse at 20° C. for 14 days. Evaluation was effected by counting the plants which emerged. 0% means an efficacy which corresponds to that of the untreated control, whereas an efficacy of 100% means that all seeds have germinated. In this test, the following inventive compounds show an efficiency of 70% or higher at a dose of 50 g/dt.: […]

Leptosphaeria maculans = experiment: Leptosphaeria test (oilseed rape)/seed treatment; details: dose 50 g/dt (rate 100 [sic]), 14 days at 10° C. and 7 days at 18° C., counting emerged plants
Protocol: as §3, with “Cottonseeds” left out, “Leptosphaeria maculans.” for “Rhizoctonia solani.”, “[…].” for “cottonseeds.”, “steamed field soil and sand (1:1)” for “clay granules”, “10° C. for 14 days and at 18°” for “20°”, “g/dt.:” for “g/dt:”

SMILES | Efficacy (%) (Venturia inaequalis) | Efficacy (%) (Sphaerotheca fuliginea) | Efficacy (%) (Uromyces appendiculatus) | Efficacy (%) (Phakopsora pachyrhizi) | Efficacy (%) (Pyricularia oryzae) | Efficacy (%) (Puccinia recondita [1]) | Efficacy (%) (Fusarium graminearum) | Efficacy (%) (Septoria tritici) | Efficacy (%) (Leptosphaeria nodorum) | Efficacy (%) (Pyrenophora teres) | Efficacy (%) [2] [%] | Efficacy (%) (Botrytis cinerea) | efficacy (Cochliobolus miyabeanus) [%] | Efficacy (%) (Microdochium nivale) | Efficacy (%) (Rhizoctonia solani) | Efficacy (%) (Puccinia recondita [3]) | Efficacy (%) (Fusarium culmorum) | Efficacy (%) (Leptosphaeria maculans)
OC(Cn1ncnc1I)(c1ccc(F)cc1F)C1(Oc2ccc(F)cc2)CC1 (stereo not shown) [Compound 10] | 100 | 100 | 100 | 98 | 97 | 100 | – | – | – | – | – | – | – | – | – | – | – | –
CC(C1CC1)C(O)(Cn1ncnc1I)c1ccc(Cl)cc1 (stereo not shown) [Compound 17] | – | 95 | – | – | – | 89 | – | – | – | – | – | – | – | – | – | – | – | –
Fc1ccc(C2(Cn3ncnc3I)OC2c2ccccc2Cl)cc1 (stereo not shown) [Compound 1] | 97 | 100 | 97 | – | – | 100 | 75 | 100 | 100 | 78 | 100 | 73 | – | – | – | – | – | –
OC(Cc1ccc(F)cc1)(Cn1ncnc1I)C1(Cl)CC1 (stereo not shown) [Compound 4] | 100 | 100 | 100 | – | ≥ 80 | 100 | 100 | 100 | 93 | 100 | 100 | 89 | ≥ 80 | – | – | – | – | –
OC(Cc1ccccc1Cl)(Cn1ncnc1I)C1(Cl)CC1 (stereo not shown) [Compound 3] | 100 | 100 | 100 | 98 | 94 | 100 | 100 | 88 | 100 | 100 | 100 | 100 | ≥ 98 | 100 | 100 | 100 | 100 | 100
OC(Cn1ncnc1I)(c1ccc(Br)cc1)C1(Oc2ccc(F)cc2)CC1 (stereo not shown) [Compound 6] | – | 100 | – | – | – | 100 | – | – | – | – | – | – | – | – | – | – | – | –
CC(C)(C)C(O)(CCc1ccc(Cl)cc1)Cn1ncnc1I (stereo not shown) [Compound 2] | 100 | 100 | 100 | – | – | 100 | 100 | – | 100 | 94 | 100 | 90 | – | – | – | – | – | –
OC(Cn1ncnc1I)(c1ccc(Cl)cc1)C1(Oc2ccccc2F)CC1 (stereo not shown) [Compound 7] | 100 | 100 | 100 | 98 | – | 100 | – | – | – | – | – | – | – | – | – | – | – | –
OC(Cn1ncnc1I)(c1ccc(F)cc1F)C1(Oc2ccccc2Cl)CC1 (stereo not shown) [Compound 11] | – | 100 | – | – | 93 | 94 | – | – | – | – | – | – | – | – | – | – | – | –
CC(C)(C)C(O)(COc1ccc(Cl)cc1)Cn1ncnc1I (stereo not shown) [Compound 18] | 100 | 100 | 100 | – | – | 100 | – | 100 | 100 | 93 | 100 | – | – | – | – | – | – | –
OC(Cc1ccccc1Cl)(Cn1ncnc1I)C1(F)CC1 (stereo not shown) [Compound 13] | 99 | 100 | 100 | – | – | – | 100 | 100 | 86 | 100 | 100 | – | – | – | – | – | – | –
CC1COC(Cn2ncnc2I)(c2ccc(Oc3ccc(Cl)cc3)cc2Cl)O1 (mixture of isomers) [Compound 8] | 100 | 100 | 100 | 98 | – | 100 | – | – | 94 | 88 | 100 | – | – | – | – | – | – | –
OC(Cn1ncnc1I)(c1ccc(Br)cc1)C1(Oc2ccccc2)CC1 (stereo not shown) [Compound 9] | 100 | 100 | 100 | – | – | 100 | – | – | – | – | – | – | – | – | – | – | – | –
Fc1cccc(C2(Cn3ncnc3I)OC2c2ccccc2Cl)c1 (stereo not shown) [Compound 16] | – | 100 | – | – | – | 90 | – | – | – | – | – | – | – | – | – | – | – | –
